In publication PMC7259600, “The crystal structures of Thermus thermophilus CMP kinase complexed with a phosphoryl group acceptor and donor” (PLoS ONE, 2020):

Assays:
[1] = target: T1, ttCMPK (CMP kinase of Thermus thermophilus HB8) (Thermus thermophilus, UniProt Q5SL35); assay: X-ray crystal structure of the ternary complex (crystal soaked with CMP, ATP and GdCl3); type: binding; conditions: with CDP and Gd3+; 1.6 A, closed form; phosphoryl donor site
T1 construct: gene cmk; full-length, expressed from pET-11a (NdeI/BamHI) in E. coli BL21(DE3), no tag mentioned; SeMet-labelled protein for the CMP open form; residue numbers up to 209
T1 sequence (Q5SL35 1-208): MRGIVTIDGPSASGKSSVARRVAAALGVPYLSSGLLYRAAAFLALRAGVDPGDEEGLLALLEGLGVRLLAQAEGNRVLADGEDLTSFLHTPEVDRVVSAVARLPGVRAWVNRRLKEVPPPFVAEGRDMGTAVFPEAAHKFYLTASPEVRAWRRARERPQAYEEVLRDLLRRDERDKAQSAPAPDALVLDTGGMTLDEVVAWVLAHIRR

[2] = target: T1, ttCMPK (CMP kinase of Thermus thermophilus HB8); assay: X-ray crystal structure of the complex (co-crystallisation); type: binding; conditions: closed form 1.5 A (3AKE; AMP-PCP and MgCl2 in drop, no AMP-PCP density); open form 2.2 A (3W8N; SeMet protein, MgCl2); phosphoryl acceptor site

| Compound | X-ray crystal structure of the ternary complex (crystal soaked with CMP, ATP and) [1] | X-ray crystal structure of the complex (co-crystallisation) [2] |
| --- | --- | --- |
| Nc1ncnc2c1ncn2[C@@H]1O[C@H](COP(=O)(O)OP(=O)(O)O)[C@@H](O)[C@H]1O [ADP] | ADP is recognized by several residues from both the CORE and LID domains |  |
| Nc1ccn([C@@H]2O[C@H](COP(=O)(O)O)[C@@H](O)[C@H]2O)c(=O)n1 [CMP] |  | 3W8N (CMP "open" complex), 3AKE (CMP "closed" complex) |
